Test results from patent publication US20060058351A1, “Novel ligands that modulate LXR-type receptors and cosmetic/pharmaceutical applications thereof” (GALDERMA RESEARCH & DEVELOPMENT, S.N.C., priority 2003, published 2006).

Target: T1, LXRβ receptor (Gal-hLXRβ-DEF in HG5LN HeLa cells) (Homo sapiens, UniProt P55055)
T1 construct: stably transported with the Gal-hLXRβ-DEF plasmid; expressed in transfected cells; host or cells: HG5LN cells (HeLa stably transfected with the (17mer)5-bGlob-Luc reporter)
T1 sequence (P55055 222-460 limits assumed): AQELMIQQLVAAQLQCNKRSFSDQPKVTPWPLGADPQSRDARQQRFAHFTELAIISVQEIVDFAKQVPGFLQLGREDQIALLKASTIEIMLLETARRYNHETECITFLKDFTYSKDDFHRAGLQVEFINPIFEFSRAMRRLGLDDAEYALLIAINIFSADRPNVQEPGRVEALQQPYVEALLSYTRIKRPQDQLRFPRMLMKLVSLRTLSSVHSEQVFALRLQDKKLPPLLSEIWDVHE
Test: LXRβ transactivation test (luciferase reporter), determination of Kd apparent by crossover curves against a reference agonist
Format: cell-based
Conditions: for KdR/KdA: ratio of KdR to KdA
Procedure: This activity on the LXRβ receptors is measured in the transactivation test and quantified by means of the dissociation constant Kdapp (apparent), as described in Example 3.
The activity of the LXRβ receptors is measured in a transactivation test. Activation of the receptors with an agonist (activator) in HeLa cells leads to the expression of a reporter gene, luciferase, which, in the presence of a substrate, generates light. The activation of the receptors may thus be measured by quantifying the luminescence produced after incubating the cells in the presence of a reference agonist. The antagonist products displace the agonist from its site, thus preventing activation of the receptor: there will thus be a reduction in the light produced, which may be quantified. The agonist products are tested alone and their effect is measured by measuring the activation of luminescence after incubation.
Determination of the Kdapp:
In this study, a constant that is the affinity of the molecule for the receptor is determined. Since this value can fluctuate depending on the basal activity and the expression of the receptor, it is known as the Kd apparent (KdApp).
To determine this constant, “crossover curves” of the test product against a reference agonist are produced in a 96-well plate: […] of the test product plus a concentration 0 (in the rows) and 7 concentrations of the agonist plus a 0 concentration (in the columns). This is 88 measurement points for one product and one receptor. The remaining 8 wells are used for the 100% control (total agonist) and 0% control (DMSO).
These crossover curves make it possible to determine the AC50 values (concentration at which 50% activation is observed) of the reference ligand at various concentrations of the test product. These AC50 values are used to calculate the Schild regression by plotting a straight line corresponding to the Schild equation (“quantitation in receptor pharmacology,” Terry P. Kenakin, Receptors and Channels, 2001, 7, 371-385).
In the case of an antagonist, an IC50 value (concentration inhibiting 50% of the activity) is calculated by plotting the curve of the product at the concentration of the reference ligand giving 80% activation.
The cell lines used are HG5LN cells, HeLa cells stably transfected with the (17mer)5-bGlob-Luc reporter and also stably […] with the Gal-hLXRβ-DEF plasmid. These cells are inoculated into 96-well plates at a rate of 10 000 cells per well in 100 μl of DMEM medium free of phenol red and supplemented with 10% defatted calf serum. The plates are then incubated at 37° C. and 7% CO2 for 4 hours.
The various dilutions of the test products, of the reference ligand and of the 100% control (N-(2,2,2-trifluoroethyl)-N-[4-(trifluorohydroxy-trifluoromethylethyl)phenyl]benzenesulfonamide) and of the 0% control (0.2% dimethyl sulfoxide) are added at a rate of 5 μl per well. The plates are then incubated for 18 hours at 37° C. and 7% CO2.
The culture medium is removed by turning over and 100 μl of a 1:1 PBS/luciferine mixture are added to each well. After 5 minutes, the plates are read using a luminescence detector.

[1] = KdA, Affinity for the LXRβ receptor, HG5LN HeLa cells, Gal-hLXRβ-DEF, luciferase
[2] = KdApp, apparent dissociation constant, Schild regression, LXRβ receptor
[3] = KdR, Affinity for the LXRβ receptor, HG5LN HeLa cells, Gal-hLXRβ-DEF, luciferase

Structure (SMILES) | Kd [1] | Kd [2] | Kd [3] | KdR/KdA
CCCC(=O)C1(c2ccccc2)CCN(C(=O)C(C)(C)Oc2ccccc2Cl)CC1 [Compound 47, 1-{1-[2-(2-chlorophenoxy)-2-methylpropionyl]4-phenylpiperidin-4-yl}butan-1-one] | 20000 nM | 2000 nM | 2000 nM | 0.1
CC(=O)C1(c2ccccc2)CCN(C(=O)CNC(=O)c2ccc(C3CCCCC3)cc2)CC1 [Compound 18, N-[2-(4-acetyl-4-phenylpiperidin-1-yl)-2-oxoethyl]-4-cyclohexylbenzamide] | 500 nM | 2000 nM | 2000 nM | 4
CCCC(=O)C1(c2ccccc2)CCN(C(=O)CNC(=O)c2ccc(C3CCCCC3)cc2)CC1 [Compound 54, N-[2-(4-butyryl-4-phenylpiperidin-1-yl)-2-oxoethyl]-4-cyclohexylbenzamide] | 500 nM | 2000 nM | 2000 nM | 4
